Experimental data as given in patent US9422243B2 (priority 2011, dated 2016).
Like-named read-outs stand apart in the source and are kept apart here.

Columns and labels:
in vivo = details: male, Balb, Nu/Nu, mouse, plasma, 10 mg/kg; for Vd / clearance: iv; for AUC / Cmax / half-life: po
[1] = mouse, 10 mg/kg, oral vs IV dose-normalized plasma AUC
[2] = test system: Capan-1 human pancreatic cancer tumors; details: for T − C: time to reach 1 g
[3] = test system: BRCA mutations and breast, ovarian and prostate cancer; details: 19 patients with BRCA mutations and breast, monotherapy; cited from earlier work
[4] = cpd. 1 100 mg/kg oral daily, days 1 to 14
[5] = temozolomide 50 mg/kg oral, days 3, 4, 5, 6, 7 and 8

Vd (in vivo) [L/kg]	clearance (in vivo) [mL/min/kg]	AUC (in vivo) [µM·h]	Cmax (in vivo) [nM]	half-life (in vivo) [h]	F on AUC [1] [%]	Compound	BWL (%) [2, 4] [%]	TGI (%) [2, 4] [%]	Toxicity [2, 4]	T − C [2, 4] [days]	BWL (%) [2, 5] [%]	TGI (%) [2, 5] [%]	Toxicity [2, 5]	T − C [2, 5] [days]	objective response rate [3] [%]
6.5	45.4	10.5	4600	3.9	133	COc1ccc(-c2[nH]c(=O)c3cc(F)ccc3c2OCCN)cc1F.Cl [Compound 21, 4-(2-Amino-ethoxy)-7-fluoro-3-(3-fluoro-4-methoxy-phenyl)-2H-isoquinolin-1-one hydrochloride]									
4.2	20.5	20.3	2800	3.5	136	NCCOc1c(-c2ccc(Cl)c(Cl)c2)[nH]c(=O)c2cc(F)ccc12 [Compound 14, 4-(2-Amino-ethoxy)-3-(3,4-dichloro-phenyl)-7-fluoro-2H-isoquinolin-1-one]									
						Cn1nnc2c(C(N)=O)ncn2c1=O [temozolomide, reference compound]					2.5	13	0/7	1	
5.7	45	10	2000	3	128	Cc1cc(-c2[nH]c(=O)c3cc(F)ccc3c2OCCN)ccc1Cl.Cl [Compound 13, 4-(2-Amino-ethoxy)-3-(4-chloro-3-methyl-phenyl)-7-fluoro-2H-isoquinolin-1-one hydrochloride]									
4.5	46.3	8.15	3150	1.77	109	Cl.NCCOc1c(-c2ccc(Br)cc2)[nH]c(=O)c2c(F)c(F)ccc12 [Compound 12, 4-(2-Amino-ethoxy)-3-(4-bromo-phenyl)-7,8-difluoro-2H-isoquinolin-1-one hydrochloride]									
						O=C(c1cc(Cc2n[nH]c(=O)c3ccccc23)ccc1F)N1CCN(C(=O)C2CC2)CC1 [Olaparib]									47
5.2	28.2	7.5	2850	3	74	Cl.NCCOc1c(-c2ccc(Cl)cc2)[nH]c(=O)c2cc(F)ccc12 [Compound 8, 4-(2-Amino-ethoxy)-3-(4-chloro-phenyl)-7-fluoro-2H-isoquinolin-1-one hydrochloride]									
7.8	44.5	5.6	3000	1.43	83	Cl.NCCOc1c(-c2ccc(N3CCOCC3)c(Br)c2)[nH]c(=O)c2cc(F)ccc12 [Compound 4, 4-(2-Amino-ethoxy)-3-(3-bromo-4-morpholin-4-yl-phenyl)-7-fluoro-2H-isoquinolin-1-one hydrochloride]									

Compound	Vd (in vivo) [L/kg]	clearance (in vivo) [mL/min/kg]	AUC (in vivo) [µM·h]	Cmax (in vivo) [nM]	half-life (in vivo) [h]	F on AUC [1] [%]	BWL (%) [2, 4] [%]	TGI (%) [2, 4] [%]	Toxicity [2, 4]	T − C [2, 4] [days]	BWL (%) [2, 5] [%]	TGI (%) [2, 5] [%]	Toxicity [2, 5]	T − C [2, 5] [days]	objective response rate [3] [%]
Cl.NCCOc1c(-c2ccc(Br)cc2)[nH]c(=O)c2cc(F)ccc12 [Compound 1, 4-(2-Amino-ethoxy)-3-(4-bromo-phenyl)-7-fluoro-2H-isoquinolin-1-one hydrochloride]	3.6	12	27	6000	3.9	107	3	21	0/7	4					
